Experimental data taken from patent US10251395B2, “Substituted furano-/thienocycloalkylamino-2-pyrimidine derivatives and use thereof for controlling undesired plant growth” (Bayer CropScience Aktiengesellschaft, priority 2015, dated 2019).

Tests used:
Assay type in all cases: in vivo
Amaranthus retroflexus [1] = test: Post-emergence herbicidal effect; settings: assessed visually after about 3 weeks vs untreated controls
Method in brief: (§1)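 Ratings are visual percentages taken around 3 weeks after treatment, compared with untreated plants. Treatment consisted of an aqueous spray of WP or EC formulations, with 0.2% wetting agent, onto one-leaf-stage weeds raised from seed in sandy loam.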

Veronica persica [2] = test: Post-emergence herbicidal effect; settings: assessed visually after about 3 weeks vs untreated controls
Method in brief: as §1

Stellaria media [3] = test: Post-emergence herbicidal effect; settings: assessed visually after about 3 weeks vs untreated controls
Method in brief: as §1

Echinochloa crus-galli [4] = test: Post-emergence herbicidal effect; settings: 320 g/ha, assessed visually after about 3 weeks vs untreated controls
Method in brief: as §1

Abutilon theophrasti [5] = test: Post-emergence herbicidal effect; settings: assessed visually after about 3 weeks vs untreated controls
Method in brief: as §1

Viola tricolor [6] = test: Post-emergence herbicidal effect; settings: assessed visually after about 3 weeks vs untreated controls
Method in brief: as §1

Amaranthus retroflexus [7] = test: Pre-emergence herbicidal effect; settings: scored visually after 3 weeks
Method in brief: (§2)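 After seeds are covered with sandy loam soil, the formulated compound is sprayed onto the soil surface as an aqueous suspension or emulsion containing 0.2% wetting agent. Three weeks later in the greenhouse, damage is rated by eye from 0% (like controls) to 100% (dead).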

Veronica persica [8] = test: Pre-emergence herbicidal effect; settings: scored visually after 3 weeks
Method in brief: as §2

Stellaria media [9] = test: Pre-emergence herbicidal effect; settings: scored visually after 3 weeks
Method in brief: as §2

Polygonum convolvulus = test: Pre-emergence herbicidal effect; settings: scored visually after 3 weeks
Method in brief: as §2

Setaria viridis [10] = test: Pre-emergence herbicidal effect; settings: scored visually after 3 weeks
Method in brief: as §2

Echinochloa crus-galli [11] = test: Pre-emergence herbicidal effect; settings: scored visually after 3 weeks
Method in brief: as §2

Abutilon theophrasti [12] = test: Pre-emergence herbicidal effect; settings: scored visually after 3 weeks
Method in brief: as §2

Viola tricolor [13] = test: Pre-emergence herbicidal effect; settings: scored visually after 3 weeks
Method in brief: as §2

Matricaria inodora [14] = test: Pre-emergence herbicidal effect; settings: scored visually after 3 weeks
Method in brief: as §2

Alopecurus myosuroides = test: Pre-emergence herbicidal effect; settings: Dosage 320 g/ha, scored visually after 3 weeks
Method in brief: as §2

Ipomoea purpurea = test: Post-emergence herbicidal effect; settings: 320 g/ha, assessed visually after about 3 weeks vs untreated controls
Method in brief: as §1

Setaria viridis [15] = test: Post-emergence herbicidal effect; settings: 320 g/ha, assessed visually after about 3 weeks vs untreated controls
Method in brief: as §1

Matricaria inodora [16] = test: Post-emergence herbicidal effect; settings: assessed visually after about 3 weeks vs untreated controls
Method in brief: as §1

Lolium multiflorum = test: Pre-emergence herbicidal effect; settings: Dosage 320 g/ha, scored visually after 3 weeks
Method in brief: as §2

Cc1cc2c(s1)C(Nc1ncc3c(n1)CCCC3=O)CCC2 (racemic) [compound 8]
90%: post-emergence efficacy AMARE (Amaranthus retroflexus [1]; 320 g/ha) | post-emergence efficacy VERPE (Veronica persica [2]; 320 g/ha) | post-emergence efficacy STEME (Stellaria media [3]; 320 g/ha) | post-emergence efficacy VIOTR (Viola tricolor [6]; 320 g/ha) | SETVI pre-emergence efficacy (herbicidal activity) (Setaria viridis [10]; Dosage 80 g/ha) | ECHCG pre-emergence efficacy (herbicidal activity) (Echinochloa crus-galli [11]; Dosage 80 g/ha)
80%: post-emergence efficacy STEME (Stellaria media [3]; 80 g/ha) | post-emergence efficacy ABUTH (Abutilon theophrasti [5]; 320 g/ha) | STEME pre-emergence efficacy (herbicidal activity) (Stellaria media [9]; Dosage 80 g/ha) | ALOMY pre-emergence efficacy (herbicidal activity) (Alopecurus myosuroides)
100%: post-emergence efficacy ECHCG (Echinochloa crus-galli [4]) | AMARE pre-emergence efficacy (herbicidal activity) (Amaranthus retroflexus [7]; Dosage 80 g/ha) | AMARE pre-emergence efficacy (herbicidal activity) (Amaranthus retroflexus [7]; Dosage 320 g/ha) | VERPE pre-emergence efficacy (herbicidal activity) (Veronica persica [8]; Dosage 80 g/ha) | VERPE pre-emergence efficacy (herbicidal activity) (Veronica persica [8]; Dosage 320 g/ha) | STEME pre-emergence efficacy (herbicidal activity) (Stellaria media [9]; Dosage 320 g/ha) | POLCO pre-emergence efficacy (herbicidal activity) (Polygonum convolvulus; Dosage 80 g/ha) | POLCO pre-emergence efficacy (herbicidal activity) (Polygonum convolvulus; Dosage 320 g/ha) | SETVI pre-emergence efficacy (herbicidal activity) (Setaria viridis [10]; Dosage 320 g/ha) | ECHCG pre-emergence efficacy (herbicidal activity) (Echinochloa crus-galli [11]; Dosage 320 g/ha) | ABUTH pre-emergence efficacy (herbicidal activity) (Abutilon theophrasti [12]; Dosage 320 g/ha) | VIOTR pre-emergence efficacy (herbicidal activity) (Viola tricolor [13]; Dosage 80 g/ha) | VIOTR pre-emergence efficacy (herbicidal activity) (Viola tricolor [13]; Dosage 320 g/ha) | MATIN pre-emergence efficacy (herbicidal activity) (Matricaria inodora [14]; Dosage 80 g/ha) | MATIN pre-emergence efficacy (herbicidal activity) (Matricaria inodora [14]; Dosage 320 g/ha)

Cc1cc2c(s1)CCCC2Nc1nc(N)c([S+](C)[O-])c(Cl)n1 (racemic) [compound 39]
100%: AMARE pre-emergence efficacy (herbicidal activity) (Amaranthus retroflexus [7]; Dosage 320 g/ha) | VERPE pre-emergence efficacy (herbicidal activity) (Veronica persica [8]; Dosage 320 g/ha) | STEME pre-emergence efficacy (herbicidal activity) (Stellaria media [9]; Dosage 80 g/ha) | STEME pre-emergence efficacy (herbicidal activity) (Stellaria media [9]; Dosage 320 g/ha) | SETVI pre-emergence efficacy (herbicidal activity) (Setaria viridis [10]; Dosage 80 g/ha) | SETVI pre-emergence efficacy (herbicidal activity) (Setaria viridis [10]; Dosage 320 g/ha) | ECHCG pre-emergence efficacy (herbicidal activity) (Echinochloa crus-galli [11]; Dosage 320 g/ha) | VIOTR pre-emergence efficacy (herbicidal activity) (Viola tricolor [13]; Dosage 80 g/ha) | VIOTR pre-emergence efficacy (herbicidal activity) (Viola tricolor [13]; Dosage 320 g/ha) | MATIN pre-emergence efficacy (herbicidal activity) (Matricaria inodora [14]; Dosage 80 g/ha) | MATIN pre-emergence efficacy (herbicidal activity) (Matricaria inodora [14]; Dosage 320 g/ha)
80%: post-emergence efficacy VIOTR (Viola tricolor [6]; 80 g/ha) | post-emergence efficacy VIOTR (Viola tricolor [6]; 320 g/ha) | post-emergence efficacy PHBPU (Ipomoea purpurea) | POLCO pre-emergence efficacy (herbicidal activity) (Polygonum convolvulus; Dosage 80 g/ha) | ECHCG pre-emergence efficacy (herbicidal activity) (Echinochloa crus-galli [11]; Dosage 80 g/ha) | ABUTH pre-emergence efficacy (herbicidal activity) (Abutilon theophrasti [12]; Dosage 320 g/ha)
90%: POLCO pre-emergence efficacy (herbicidal activity) (Polygonum convolvulus; Dosage 320 g/ha)

Cc1cc2c(s1)CCCC2Nc1ncc(-c2cncc(C(F)(F)F)c2)c(N)n1 (racemic) [compound 290]
100%: post-emergence efficacy VERPE (Veronica persica [2]; 320 g/ha) | AMARE pre-emergence efficacy (herbicidal activity) (Amaranthus retroflexus [7]; Dosage 320 g/ha) | VERPE pre-emergence efficacy (herbicidal activity) (Veronica persica [8]; Dosage 80 g/ha) | VERPE pre-emergence efficacy (herbicidal activity) (Veronica persica [8]; Dosage 320 g/ha) | STEME pre-emergence efficacy (herbicidal activity) (Stellaria media [9]; Dosage 80 g/ha) | STEME pre-emergence efficacy (herbicidal activity) (Stellaria media [9]; Dosage 320 g/ha) | SETVI pre-emergence efficacy (herbicidal activity) (Setaria viridis [10]; Dosage 320 g/ha) | ECHCG pre-emergence efficacy (herbicidal activity) (Echinochloa crus-galli [11]; Dosage 320 g/ha) | LOLMU pre-emergence efficacy (herbicidal activity) (Lolium multiflorum) | VIOTR pre-emergence efficacy (herbicidal activity) (Viola tricolor [13]; Dosage 80 g/ha) | VIOTR pre-emergence efficacy (herbicidal activity) (Viola tricolor [13]; Dosage 320 g/ha) | MATIN pre-emergence efficacy (herbicidal activity) (Matricaria inodora [14]; Dosage 320 g/ha)
90%: post-emergence efficacy VIOTR (Viola tricolor [6]; 320 g/ha) | post-emergence efficacy MATIN (Matricaria inodora [16]; 320 g/ha) | MATIN pre-emergence efficacy (herbicidal activity) (Matricaria inodora [14]; Dosage 80 g/ha)
60%: post-emergence efficacy SETVI (Setaria viridis [15]) | post-emergence efficacy ABUTH (Abutilon theophrasti [5]; 80 g/ha) | post-emergence efficacy ABUTH (Abutilon theophrasti [5]; 320 g/ha) | post-emergence efficacy VIOTR (Viola tricolor [6]; 80 g/ha) | SETVI pre-emergence efficacy (herbicidal activity) (Setaria viridis [10]; Dosage 80 g/ha)
50%: POLCO pre-emergence efficacy (herbicidal activity) (Polygonum convolvulus; Dosage 80 g/ha)
80%: post-emergence efficacy AMARE (Amaranthus retroflexus [1]; 80 g/ha) | post-emergence efficacy AMARE (Amaranthus retroflexus [1]; 320 g/ha) | post-emergence efficacy MATIN (Matricaria inodora [16]; 80 g/ha) | POLCO pre-emergence efficacy (herbicidal activity) (Polygonum convolvulus; Dosage 320 g/ha) | ALOMY pre-emergence efficacy (herbicidal activity) (Alopecurus myosuroides)

Cc1cc2c(s1)CCCC2Nc1ncc(C(N)=O)c(N)n1 (racemic) [compound 267]
60%: post-emergence efficacy SETVI (Setaria viridis [15])
100%: post-emergence efficacy STEME (Stellaria media [3]; 320 g/ha) | AMARE pre-emergence efficacy (herbicidal activity) (Amaranthus retroflexus [7]; Dosage 80 g/ha) | AMARE pre-emergence efficacy (herbicidal activity) (Amaranthus retroflexus [7]; Dosage 320 g/ha) | VERPE pre-emergence efficacy (herbicidal activity) (Veronica persica [8]; Dosage 80 g/ha) | VERPE pre-emergence efficacy (herbicidal activity) (Veronica persica [8]; Dosage 320 g/ha) | STEME pre-emergence efficacy (herbicidal activity) (Stellaria media [9]; Dosage 80 g/ha) | STEME pre-emergence efficacy (herbicidal activity) (Stellaria media [9]; Dosage 320 g/ha) | VIOTR pre-emergence efficacy (herbicidal activity) (Viola tricolor [13]; Dosage 320 g/ha)
80%: post-emergence efficacy AMARE (Amaranthus retroflexus [1]; 80 g/ha) | post-emergence efficacy AMARE (Amaranthus retroflexus [1]; 320 g/ha) | post-emergence efficacy VERPE (Veronica persica [2]; 80 g/ha) | post-emergence efficacy VERPE (Veronica persica [2]; 320 g/ha) | post-emergence efficacy STEME (Stellaria media [3]; 80 g/ha) | post-emergence efficacy ABUTH (Abutilon theophrasti [5]; 80 g/ha) | post-emergence efficacy ABUTH (Abutilon theophrasti [5]; 320 g/ha) | post-emergence efficacy VIOTR (Viola tricolor [6]; 80 g/ha) | post-emergence efficacy MATIN (Matricaria inodora [16]; 80 g/ha) | post-emergence efficacy MATIN (Matricaria inodora [16]; 320 g/ha) | post-emergence efficacy PHBPU (Ipomoea purpurea) | SETVI pre-emergence efficacy (herbicidal activity) (Setaria viridis [10]; Dosage 80 g/ha) | SETVI pre-emergence efficacy (herbicidal activity) (Setaria viridis [10]; Dosage 320 g/ha) | ALOMY pre-emergence efficacy (herbicidal activity) (Alopecurus myosuroides)
90%: post-emergence efficacy VIOTR (Viola tricolor [6]; 320 g/ha) | ECHCG pre-emergence efficacy (herbicidal activity) (Echinochloa crus-galli [11]; Dosage 320 g/ha) | VIOTR pre-emergence efficacy (herbicidal activity) (Viola tricolor [13]; Dosage 80 g/ha)

Cc1cc2c(s1)CCCC2Nc1nc(N)c(S(C)(=O)=O)c(Cl)n1 (racemic) [compound 16]
90%: post-emergence efficacy AMARE (Amaranthus retroflexus [1]; 320 g/ha) | post-emergence efficacy STEME (Stellaria media [3]; 320 g/ha) | post-emergence efficacy ABUTH (Abutilon theophrasti [5]; 320 g/ha) | post-emergence efficacy VIOTR (Viola tricolor [6]; 320 g/ha) | AMARE pre-emergence efficacy (herbicidal activity) (Amaranthus retroflexus [7]; Dosage 80 g/ha)
80%: post-emergence efficacy VERPE (Veronica persica [2]; 320 g/ha)
100%: post-emergence efficacy ECHCG (Echinochloa crus-galli [4]) | AMARE pre-emergence efficacy (herbicidal activity) (Amaranthus retroflexus [7]; Dosage 320 g/ha) | VERPE pre-emergence efficacy (herbicidal activity) (Veronica persica [8]; Dosage 80 g/ha) | VERPE pre-emergence efficacy (herbicidal activity) (Veronica persica [8]; Dosage 320 g/ha) | STEME pre-emergence efficacy (herbicidal activity) (Stellaria media [9]; Dosage 80 g/ha) | STEME pre-emergence efficacy (herbicidal activity) (Stellaria media [9]; Dosage 320 g/ha) | SETVI pre-emergence efficacy (herbicidal activity) (Setaria viridis [10]; Dosage 320 g/ha) | ECHCG pre-emergence efficacy (herbicidal activity) (Echinochloa crus-galli [11]; Dosage 80 g/ha) | ECHCG pre-emergence efficacy (herbicidal activity) (Echinochloa crus-galli [11]; Dosage 320 g/ha) | VIOTR pre-emergence efficacy (herbicidal activity) (Viola tricolor [13]; Dosage 80 g/ha) | VIOTR pre-emergence efficacy (herbicidal activity) (Viola tricolor [13]; Dosage 320 g/ha) | MATIN pre-emergence efficacy (herbicidal activity) (Matricaria inodora [14]; Dosage 80 g/ha) | MATIN pre-emergence efficacy (herbicidal activity) (Matricaria inodora [14]; Dosage 320 g/ha)
20%: POLCO pre-emergence efficacy (herbicidal activity) (Polygonum convolvulus; Dosage 80 g/ha) | SETVI pre-emergence efficacy (herbicidal activity) (Setaria viridis [10]; Dosage 80 g/ha)
40%: POLCO pre-emergence efficacy (herbicidal activity) (Polygonum convolvulus; Dosage 320 g/ha) | ABUTH pre-emergence efficacy (herbicidal activity) (Abutilon theophrasti [12]; Dosage 80 g/ha) | ABUTH pre-emergence efficacy (herbicidal activity) (Abutilon theophrasti [12]; Dosage 320 g/ha)
